Counter-ions that a name gives are not always drawn. Like-named read-outs stand apart in the source and are kept apart here.
Key:
HO-1 (rat spleen) = biological target: T1, HO-1 (rat spleen) (Rattus norvegicus, UniProt P06762); assay: HO enzymatic activity in rat spleen microsomal fraction (CO formed from methemalbumin, gas chromatography); format: biochemical
T1 construct: Spleen microsomes were used as a source of HO-1; from tissue; host or cells: spleen microsomal fraction of adult male Sprague-Dawley rats
T1 sequence (P06762 1-289): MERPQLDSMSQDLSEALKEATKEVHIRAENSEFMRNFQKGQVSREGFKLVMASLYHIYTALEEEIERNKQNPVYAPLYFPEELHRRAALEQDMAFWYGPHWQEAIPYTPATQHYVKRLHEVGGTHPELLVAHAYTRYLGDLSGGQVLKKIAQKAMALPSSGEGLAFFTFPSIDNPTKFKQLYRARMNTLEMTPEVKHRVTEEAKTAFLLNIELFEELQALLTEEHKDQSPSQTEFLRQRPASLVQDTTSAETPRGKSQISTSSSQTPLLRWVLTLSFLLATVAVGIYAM

HO-2 (rat brain) = biological target: T2, HO-2 (rat brain) (Rattus norvegicus, UniProt P23711); assay: HO enzymatic activity in rat brain microsomal fraction (CO formed from methemalbumin, gas chromatography); format: biochemical
T2 construct: brain microsomes were used as a source of HO-2; from tissue; host or cells: brain microsomal fraction of adult male Sprague-Dawley rats
T2 sequence (P23711 1-315): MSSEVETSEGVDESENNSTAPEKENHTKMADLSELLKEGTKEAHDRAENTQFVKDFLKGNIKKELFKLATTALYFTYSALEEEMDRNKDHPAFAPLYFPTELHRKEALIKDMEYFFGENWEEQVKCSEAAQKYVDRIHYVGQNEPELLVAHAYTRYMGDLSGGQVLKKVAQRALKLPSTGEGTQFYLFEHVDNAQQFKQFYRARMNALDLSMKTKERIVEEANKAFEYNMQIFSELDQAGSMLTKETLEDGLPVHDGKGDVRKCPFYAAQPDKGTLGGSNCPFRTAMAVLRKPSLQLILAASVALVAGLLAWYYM

[1] = rat spleen microsomes, average ± standard deviation of replicate experiments, read-out: IC50 HO-1 (rat spleen)/μM
[2] = rat brain microsomes, average ± standard deviation of replicate experiments, read-out: IC50 HO-2 (rat brain)/μM

Structure (SMILES)	IC50 (HO-1 (rat spleen); [1]) [µM]	IC50 (HO-2 (rat brain); [2]) [µM]	IC50 (HO-2 (rat brain); rat brain microsomes, average ± standard deviation of replicate experiments, hydrochloride, read-out: IC50 HO-2 (rat brain)/μM) [µM]	IC50 (HO-1 (rat spleen)) [µM]	IC50 (HO-2 (rat brain)) [µM]
Brc1ccc(CCC2(Cn3ccnc3)OCCO2)cc1 [2-[2-(4-bromophenyl)ethyl]-2-[(1H-imidazol-1-yl)methyl]-1,3-dioxolane hydrochloride]	1.9 ± 0.2	–	> 100	–	–
Clc1ccc(CCC2(Cn3ccnc3)OCCO2)cc1 [2-[2-(4-chlorophenyl)ethyl]-2-[(1H-imidazol-1-yl)methyl]-1,3-dioxolane hydrochloride]	4 ± 2	> 100	–	–	–
c1ccc(CCC2(Cn3ccnc3)OCCO2)cc1 [2-[2-phenylethyl]-2-[(1H-imidazol-1-yl)methyl]-1,3-dioxolane hydrochloride]	0.7 ± 0.4	> 100	–	–	–
O=C(Cn1ccnc1)c1ccc2c(c1)CCC2 [2-imidazol-1-yl-1-indan-5-yl-ethanone hydrochloride]	4.6 ± 0.1	37 ± 9	–	–	–
c1ccc2c(CCn3ccnc3)c[nH]c2c1 [3-[2-(1H-Imidazol-1-yl)-ethyl]-1H-indole hydrochloride]	40 ± 7	> 100	–	–	–
O=C(CCn1ccnc1)C(c1ccccc1)c1ccccc1 [4-(1H-Imidazol-1-yl)-1,1-diphenyl-butan-2-one hydrochloride]	2.6 ± 0.1	2.2 ± 0.2	–	–	–
O=C(CCc1ccccc1)Cn1nnnc1-c1ccccc1 [4-Phenyl-1-(5-phenyl-tetrazol-1-yl)-butan-2-one]	> 100	> 100	–	–	–
O=C(CCc1ccccc1)Cn1ccnc1-c1ccccc1 [4-phenyl-1-(2-phenyl-imidazol-1-yl)butan-2-one hydrochloride]	> 100	> 100	–	–	–
Clc1ccc(OCCCCCNc2nc3ccccc3[nH]2)cc1 [(1H-Benzoimidazol-2-yl)-[5-(4-chloro-phenoxy)-pentyl]-amine]	~98	~105	–	–	–
[N-]=[N+]=NC[C@@H]1CO[C@@](CCc2ccc(Cl)cc2)(Cn2ccnc2)O1 [(2R,4R)-1-{4-azidomethyl-2-[2-(4-chloro-phenyl)-ethyl]-[1,3]dioxolan-2-ylmethyl}-1H-imidazole]	3.6 ± 0.2	38 ± 5	–	–	–
OC[C@@H]1CO[C@@](CCc2ccc(Cl)cc2)(Cn2ccnc2)O1 [(2R,4R)-2-[2-(4-chlorophenyl)ethyl]-2-[(1H-imidazol-1-yl)methyl]-4-(hydroxymethyl)-1,3-dioxolane hydrochloride]	12 ± 2	> 100	–	–	–
Clc1ccc(CC[C@@]2(Cn3ccnc3)OC[C@@H](Cn3ccnc3)O2)cc1 [(2R,4R)-2-[2-(4-chlorophenyl)ethyl]-2-[(1H-imidazol-1-yl)methyl]-4-[(1H-imidazol-1-yl)methyl]-1,3-dioxolane dihydrochloride]	10 ± 6	26 ± 3	–	–	–
C[C@@H]1CO[C@@](CCc2ccc(Cl)cc2)(Cn2ccnc2)O1 [(2R,4R)-2-[2-(4-chlorophenyl)ethyl]-2-[(1H-imidazol-1-yl)methyl]-4-methyl-1,3-dioxolane hydrochloride]	0.8 ± 0.2	305 ± 25	–	–	–
C[C@@H]1CO[C@@](CCc2ccccc2)(Cn2ccnc2)O1 [(2R,4R)-2-[2-(4-phenyl)ethyl]-2-[(1H-imidazol-1-yl)methyl]-4-methyl-1,3-dioxolane hydrochloride]	2 ± 1	> 43	–	–	–
Clc1ccc(CC[C@@]2(Cn3ccnc3)OC[C@@H](CSc3ccc4ccccc4c3)O2)cc1 [(2R,4S)-1-[2-[2-(4-chloro-phenyl)-ethyl]-4-(naphthalen-2-ylsulfanylmethyl)-[1,3]dioxolan-2-ylmethyl]-1H-imidazole hydrochloride]	0.9 ± 0.1	30 ± 4	–	–	–
Clc1ccc(CC[C@@]2(Cn3ccnc3)OC[C@@H](CSc3ccccc3Br)O2)cc1 [(2R,4S)-1-{4-(2-bromo-phenylsulfanylmethyl)-2-[2-(4-chloro-phenyl)-ethyl]-[1,3]dioxolan-2-ylmethyl}-1H-imidazole hydrochloride]	6 ± 1	12.3 ± 0.5	–	–	–
Clc1ccc(CC[C@@]2(Cn3ccnc3)OC[C@@H](CSc3cccc(Br)c3)O2)cc1 [(2R,4S)-1-{4-(3-bromo-phenylsulfanylmethyl)-2-[2-(4-chloro-phenyl)-ethyl]-[1,3]dioxolan-2-ylmethyl}-1H-imidazole hydrochloride]	5 ± 2	22 ± 9	–	–	–
CSC[C@@H]1CO[C@@](CCc2ccc(Cl)cc2)(Cn2ccnc2)O1 [(2R,4S)-2-[2-(4-chlorophenyl)ethyl]-2-[(1H-imidazol-1-yl)methyl]-4-[(methylthio)methyl]-1,3-dioxolane hydrochloride]	9 ± 2	19 ± 7	–	–	–
Cc1ccc(S(=O)(=O)OC[C@@H]2CO[C@@](CCc3ccc(Cl)cc3)(Cn3ccnc3)O2)cc1 [(2R,4S)-2-[2-(4-chlorophenyl)ethyl]-2-[(1H-imidazol-1-yl)methyl]-4-[(p-toluenesulfonyloxy)meth-yl]-1,3-dioxolane]	–	–	–	6 ± 2	3 ± 1
Clc1ccc(CC[C@@]2(Cn3ccnc3)OC[C@@H](CSc3ccccc3)O2)cc1 [(2R,4S)-2-[2-(4-chlorophenyl)ethyl]-2-[(1H-imidazol-1-yl)methyl]-4-[(phenylthio)methyl]-1,3-dioxolane hydrochloride]	1.03 ± 0.07	34 ± 12	–	–	–
Nc1ccccc1SC[C@@H]1CO[C@@](CCc2ccc(Cl)cc2)(Cn2ccnc2)O1 [(2R,4S)-2-[2-(4-chlorophenyl)ethyl]-2-[(1H-imidazol-1-yl)methyl]-4-[{(2-aminophenyl)thio}meth-yl]-1,3-dioxolane dihydrochloride]	4 ± 2	42 ± 28	–	–	–
Nc1cccc(SC[C@@H]2CO[C@@](CCc3ccc(Cl)cc3)(Cn3ccnc3)O2)c1 [(2R,4S)-2-[2-(4-chlorophenyl)ethyl]-2-[(1H-imidazol-1-yl)methyl]-4-[{(3-aminophenyl]-4-[{(3-aminophenyl)thio}meth-yl]-1,3-dioxolane hydrochloride]	4 ± 2	6 ± 1	–	–	–
Nc1ccc(SC[C@@H]2CO[C@@](CCc3ccc(Cl)cc3)(Cn3ccnc3)O2)cc1 [(2R,4S)-2-[2-(4-chlorophenyl)ethyl]-2-[(1H-imidazol-1-yl)methyl]-4-[{(4-aminophenyl)thio}meth-yl]-1,3-dioxolane hydrochloride]	0.33 ± 0.07	8 ± 1	–	–	–

Now from value to compound, other results behind:

IC50 (HO-1 (rat spleen); [1]) [µM]	IC50 (HO-2 (rat brain); [2]) [µM]	Structure (SMILES)	IC50 (HO-2 (rat brain); rat brain microsomes, average ± standard deviation of replicate experiments, hydrochloride, read-out: IC50 HO-2 (rat brain)/μM) [µM]	IC50 (HO-1 (rat spleen)) [µM]	IC50 (HO-2 (rat brain)) [µM]
4 ± 1	25 ± 5	O=C(Cn1ccnc1)c1ccc(I)cc1 [2-imidazol-1-yl-1-(4-iodo-phenyl)ethanone]	–	–	–
4 ± 2	0.9 ± 0.1	O=C(Cn1ccnc1)c1ccc(CCc2ccccc2)cc1 [2-imidazol-1-yl-1-(4-phenethyl-phenyl)ethanone hydrochloride]	–	–	–
4 ± 1	6.7 ± 0.3	O=C(Cn1ccnc1)c1ccc2c(c1)CCCC2 [2-imidazol-1-yl-1-(5,6,7,8-tetrahydro-naphthalen-2-yl)-ethanone hydrochloride]	–	–	–
6.7 ± 0.2	> 100	O=C(CCc1ccc(OC(=O)c2ccccc2)cc1)Cn1ccnc1 [4-(4-(1H-Imidazol-1-yl)-3-oxobutyl)phenyl benzoate hydrochloride]	–	–	–
0.25 ± 0.01	1.4 ± 0.1	O=C(CCc1ccc(C(F)(F)F)cc1)Cn1ccnc1 [4-(4-(Trifluoromethyl)phenyl)-1-(1H-imidazol-1-yl)-2-butanone hydrochloride]	–	–	–
> 100	> 100	O=C(CCc1ccc(O)cc1)Cn1ccnc1 [4-(4-Hydroxyphenyl)-1-(1H-imidazol-1-yl)butan-2-one hydrochloride]	–	–	–
0.5 ± 0.1	4 ± 0.6	OC(CCc1ccc(Cl)cc1)Cn1ccnc1 (stereo not drawn) [4-(4-chlorophenyl)-1-(1H-imidazol-1-yl)butan-2-ol hydrochloride]	–	–	–
0.47 ± 0.05	4 ± 2	Clc1ccc(CCCCn2ccnc2)cc1 [4-(4-chlorophenyl)-1-(1H-imidazol-1-yl)butane hydrochloride]	–	–	–
0.11 ± 0.06	1.8 ± 0.7	O=C(CCc1ccc(I)cc1)Cn1ccnc1 [4-(4-iodophenyl)-1-(1H-imidazol-1-yl)butan-2-one hydrochloride]	–	–	–
0.2 ± 0.03	0.9 ± 0.2	CC(C)(C)c1ccc(CCC(=O)Cn2ccnc2)cc1 [4-(4-tert-Butyl-phenyl)-1-(1H-imidazol-1-yl)-butan-2-one hydrochloride]	–	–	–
9 ± 2	90 ± 33	O=C(CCc1ccccc1)Cn1cnc(-c2ccccc2)n1 [4-Phenyl-1-(3-phenyl-[1,2,4]triazol-1-yl)-butan-2-one]	–	–	–
> 100	> 100	O=C(CCc1ccccc1)Cn1nnc(-c2ccccc2)n1 [4-Phenyl-1-(5-phenyl-tetrazol-2-yl)-butan-2-one]	–	–	–
3.5 ± 0.1	122 ± 30	ClC[C@@H]1CO[C@@](CCc2ccc(Cl)cc2)(Cn2ccnc2)O1 [(2R,4S)-1-{4-chloromethyl-2-[2-(4-chloro-phenyl)-ethyl]-[1,3]dioxolan-2-ylmethyl}-1H-imidazole hydrochloride]	–	–	–

Reference: patent US20140155445A1, “Compounds and Methods for Treating Cancer and Diseases of the Central Nervous System” (Osta Biotechnologies Inc., priority 2007, published 2014)
